According to US20030133923A1, “Composition for preventing the formation and enhancing the breakdown of bezoars in animals and humans” (priority 2001, published 2003):

Test: In vitro breakdown of a feline hairball under simulated stomach conditions (pH 3.0, 100° F., 24 hours)
Conditions: for % enhanced break down: versus 0% Tween-80; for Hair clump wt: hairball 1.0-1.1 g
Procedure: Tween 80 (lot#1373A, Uniqema, Wilmington, Del.) was dissolved in 150 ml acidified water (pH 3.0) at a concentration of 0%, 5%, 10%, 15%, and 20%. A feline hairball (1.0-1.1 g) was then added to each of the five solutions. The mixtures were incubated at 100° F. for 24 hours. After incubation, hair lumps (defined as hair not floating free in the liquid) was removed and the liquid was strained through cheesecloth. Free hair and hair lumps were then dried and weighed.

In the case of `CCCCCCCC/C=C\CCCCCCCC(=O)OCCOCC(OCCO)C1OCC(OCCO)C1OCCO` (centres unmarked) [Tween-80], the Free hair wt (5% Tween-80, pH 3.0, 100° F.) is reported as 0.1606 g, the “Free hair wt (% total wt)” value (5% Tween-80, pH 3.0, 100° F.) is reported as 20.38% and the “Hair clump wt (% total wt)” value (5% Tween-80, pH 3.0, 100° F.) is reported as 79.62%. The “% enhanced break down” value (5% Tween-80, pH 3.0, 100° F.) was 5%, the Hair clump wt (5% Tween-80 in 150 ml acidified water pH 3.0, 100° F.) was 0.6273 g and the Free hair wt (10% Tween-80, pH 3.0, 100° F.) was 0.2576 g. The “Free hair wt (% total wt)” value (10% Tween-80, pH 3.0, 100° F.) was 53.78%, the “Hair clump wt (% total wt)” value (10% Tween-80, pH 3.0, 100° F.) was 46.22% and the “% enhanced break down” value (10% Tween-80, pH 3.0, 100° F.) was 35%. For the same compound, the Hair clump wt (10% Tween-80 in 150 ml acidified water pH 3.0, 100° F.) was 0.2214 g, the Free hair wt (15% Tween-80, pH 3.0, 100° F.) was 0.1980 g and the “Free hair wt (% total wt)” value (15% Tween-80, pH 3.0, 100° F.) was 47.86%. The “Hair clump wt (% total wt)” value (15% Tween-80, pH 3.0, 100° F.) was 52.14%, the “% enhanced break down” value (15% Tween-80, pH 3.0, 100° F.) was 35% and the Hair clump wt (15% Tween-80 in 150 ml acidified water pH 3.0, 100° F.) was 0.2157 g. The Free hair wt (20% Tween-80, pH 3.0, 100° F.) was 0.2480 g, the “Free hair wt (% total wt)” value (20% Tween-80, pH 3.0, 100° F.) was 51.99% and the “Hair clump wt (% total wt)” value (20% Tween-80, pH 3.0, 100° F.) was 48.00%. The “% enhanced break down” value (20% Tween-80, pH 3.0, 100° F.) was 35% and the Hair clump wt (20% Tween-80 in 150 ml acidified water pH 3.0, 100° F.) was 0.2290 g.
